According to patent US10551389B2, “Target binding molecules identified by kinetic target-guided synthesis” (UNIVERSITY OF SOUTH FLORIDA, priority 2013, dated 2020):

Experiments:
Bcl-XL = Bcl-XL (Homo sapiens, UniProt Q07817); assay: Inhibition of Bcl-XL (disruption of Bcl-XL/Bim interaction); type: binding; details: for inhibition at 25 µM / % Inhibition (25 μM) Bcl-XL: compound at 25 μM; for inhibition at 50 µM / % Inhibition (50 μM) Bcl-XL: compound at 50 μM
Description: (§1) In a subsequent study, a structurally diverse library of forty five thio acids and thirty eight sulfonyl azides (identified above) was screened in parallel against Mcl-1 and Bcl-XL using the above mentioned approach. Several potential hit combinations were identified (Table 3). All of these kinetic TGS hit compounds were synthesized (identified above and in Table 3). All the reactions were performed at 20-30 mg scale. The 9-fluorenylmethyl thioester was placed in a 2.0 mL vial and 3.5% DBU/dry DMF solution was added (per 1 μmol of thioester, 4.7 μL, of 3.5% DBU/dry DMF solution was added) and the reaction was stirred for one minute. Then the sulfonylazide (1 eq to thioester) was added to the reaction mixture and immediately bubbling was observed. After the reaction was completed (approximately one minute, monitored by LC-MS) water (200 μL) was added and the pH was adjusted to 7.0 using 1M HCl solution. The reaction mixture was extracted with DCM until there is no product in the aqueous layer (checked by TLC or LC-MS). The product was purified by flash chromatography. Testing of these acylsulfonamides has shown that the hit compounds disrupt the Bcl-XL/Bim or Mcl-1/Bim interaction (Table 3).

Mcl-1 = Mcl-1 (Homo sapiens, UniProt Q07820); assay: Inhibition of Mcl-1 (disruption of Mcl-1/Bim interaction); type: binding; details: for inhibition at 25 µM / % Inhibition (25 μM) Mcl-1: compound at 25 μM; for inhibition at 50 µM / % Inhibition (50 μM) Mcl-1: compound at 50 μM
Sequence of Mcl-1 (Q07820 whole entry, species assumed): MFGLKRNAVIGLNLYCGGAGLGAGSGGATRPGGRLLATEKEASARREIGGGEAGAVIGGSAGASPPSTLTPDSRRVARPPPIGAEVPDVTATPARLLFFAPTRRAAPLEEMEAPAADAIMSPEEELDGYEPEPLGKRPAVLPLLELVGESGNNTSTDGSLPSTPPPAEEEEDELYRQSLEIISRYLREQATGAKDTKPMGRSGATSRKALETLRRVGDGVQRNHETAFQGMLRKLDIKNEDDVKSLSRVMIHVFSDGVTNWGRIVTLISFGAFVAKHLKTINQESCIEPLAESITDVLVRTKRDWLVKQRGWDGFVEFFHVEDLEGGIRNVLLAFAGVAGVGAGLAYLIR
Description: as §1

Sequence of Bcl-XL (Q07817 whole entry, species assumed): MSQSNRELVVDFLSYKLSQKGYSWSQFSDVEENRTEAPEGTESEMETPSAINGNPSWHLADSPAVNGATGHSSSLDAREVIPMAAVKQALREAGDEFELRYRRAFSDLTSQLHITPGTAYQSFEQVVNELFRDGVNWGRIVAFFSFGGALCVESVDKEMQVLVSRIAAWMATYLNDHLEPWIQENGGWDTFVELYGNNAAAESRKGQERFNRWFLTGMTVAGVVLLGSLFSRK

SMILES | inhibition at 25 µM (Bcl-XL) | inhibition at 50 µM (Bcl-XL) | IC50 (Mcl-1) | inhibition at 25 µM (Mcl-1) | inhibition at 50 µM (Mcl-1) | % Inhibition (25 μM) Bcl-XL (Bcl-XL) | % Inhibition (50 μM) Bcl-XL (Bcl-XL) | % Inhibition (25 μM) Mcl-1 (Mcl-1) | % Inhibition (50 μM) Mcl-1 (Mcl-1) | IC50 (Bcl-XL)
CN(C)C(=O)c1cccc(-c2ccc(S(=O)(=O)NC(=O)c3ccc(CN4C(=O)C(c5ccc(F)cc5F)=C(c5ccc(F)cc5F)C4=O)cc3)cc2)c1 [SZ34TA42] | 19.1% | 58% | 29.3 µM | 49% | > 99% |  |  |  |  | 
[N-]=[N+]=NS(=O)(=O)c1ccc(CN(CCSc2ccccc2)Cc2ccc(S(=O)(=O)NC(=O)c3ccc(-c4ccccn4)cc3)cc2)cc1 [SZ9TA25] | 18.6% | < 2% |  | 43.1% |  |  |  |  |  | 
O=C(NS(=O)(=O)c1ccc(CN(CCSc2ccccc2)Cc2c(F)cccc2Cl)cc1)c1ccc(CCc2ccccn2)cc1 [SZ15TA17] | 43.4% | 60% | 20.2 µM | 79.6% |  |  |  |  |  | 
COc1cccc(CN(CCSc2ccccc2)Cc2ccc(S(=O)(=O)NC(=O)c3ccc4c(ccn4Cc4ccc(C(F)(F)F)cc4C(F)(F)F)c3)cc2)c1 [SZ17TA30] |  |  |  |  |  | <2.0% | <2.0% | 18.0% | 15.8% | 
O=C(NS(=O)(=O)c1ccc(NCCSc2ccccc2)c([N+](=O)[O-])c1)c1ccc(CCc2ccccn2)cc1 [SZATA17] |  |  | 60.6 µM |  |  | 83.7% | 90.6% | 30.8% | 44.7% | 2.08 µM
COc1cccc(CN(CCSc2ccccc2)Cc2ccc(S(=O)(=O)NC(=O)c3cccc4ccccc34)cc2)c1 [SZ17TA7] |  | 66.5% | 20.1 µM |  |  |  |  |  |  | 
[N-]=[N+]=NS(=O)(=O)c1ccc(CN(CCSc2ccccc2)Cc2ccc(S(=O)(=O)NC(=O)c3ccc(CCc4ccccn4)cc3)cc2)cc1 [SZ9TA17] | 50% | 63.5% | 20.4 µM | 69.3% | 103% |  |  |  |  | 
NS(=O)(=O)c1ccc(CN(CCSc2ccccc2)Cc2ccc(S(=O)(=O)NC(=O)c3ccc(-c4ccccn4)cc3)cc2)cc1 [SZ10TA25] |  |  |  |  |  | 33.9% | 53.4% | 43.9% | 93.6% | 
O=C(NS(=O)(=O)c1ccc(CN2CCN(c3ccccc3)CC2)cc1)c1ccc(-c2ccc(F)cc2)cc1 [SZ1TA14] |  |  |  |  |  | 9.6% | <2.0% | 9.0% | 24.4% | 
CN(CCc1ccccc1)Cc1ccc(S(=O)(=O)NC(=O)c2ccc(C(c3c[nH]c4ccccc34)c3c[nH]c4ccccc34)cc2)cc1 [SZ2TA31] |  |  |  |  |  | 14.9% | 9.4% | 14.2% | 16.2% | 
O=C(NS(=O)(=O)c1ccc(CNc2cccc([N+](=O)[O-])c2)cc1)c1ccc(CN2C(=O)C(c3ccc(F)cc3F)=C(c3ccc(F)cc3F)C2=O)cc1 [SZ12TA42] | 14% | 22.6% | 13.6 µM | 77.3% |  |  |  |  |  | 
O=C(Cn1c2ccccc2c2ccccc21)NS(=O)(=O)c1ccc(CN(CCSc2ccccc2)Cc2ccc3c(c2)OCO3)cc1 [SZ31TA15] | 18.5% | 21.4% | 14 µM | 82% |  |  |  |  |  | 
Cc1noc(C)c1-c1ccc(S(=O)(=O)NC(=O)c2ccc(CN3C(=O)C(c4ccc(F)cc4F)=C(c4ccc(F)cc4F)C3=O)cc2)cc1 [SZ32TA42] | 26% | 59.4% | 19.1 µM | 72.2% |  |  |  |  |  | 
O=C(NS(=O)(=O)c1ccc(CN(CCSc2ccccc2)Cc2ccc3c(c2)OCO3)cc1)c1ccc(-c2ccc(F)cc2)cc1 [SZ31TA14] |  |  |  |  |  | 17.3% | 13.3% | 56.2% | 59.5% | 
[N-]=[N+]=NS(=O)(=O)c1ccc(CN(CCSc2ccccc2)Cc2ccc(S(=O)(=O)NC(=O)c3ccccc3)cc2)cc1 [SZ9TA1] |  | 79.5% | 19.8 µM |  |  |  |  |  |  | 
COc1cccc(CN(CCSc2ccccc2)Cc2ccc(S(=O)(=O)NC(=O)Cn3c4ccccc4c4ccccc43)cc2)c1 [SZ17TA15] | 3% | 12% |  | 53.3% |  |  |  |  |  | 
COc1ccc(Cc2ccc(C(=O)NS(=O)(=O)c3ccc(CN(CCSc4ccccc4)Cc4c(F)cccc4Cl)cc3)cc2)c(OC)c1OC [SZ15TA24] |  |  |  |  |  | 14.7% | 18.9% | 54.4% | 70.8% | 

SMILES | inhibition at 25 µM (Bcl-XL) | inhibition at 50 µM (Bcl-XL) | IC50 (Mcl-1) | inhibition at 25 µM (Mcl-1) | inhibition at 50 µM (Mcl-1) | % Inhibition (25 μM) Bcl-XL (Bcl-XL) | % Inhibition (50 μM) Bcl-XL (Bcl-XL) | % Inhibition (25 μM) Mcl-1 (Mcl-1) | % Inhibition (50 μM) Mcl-1 (Mcl-1) | IC50 (Bcl-XL)
Cc1nc(-c2ccccc2)sc1C(=O)NS(=O)(=O)c1ccc(CN(CCSc2ccccc2)Cc2ccc(S(=O)(=O)N=[N+]=[N-])cc2)cc1 [SZ9TA3] |  | 21.6% | 22.7 µM |  | 83.1% |  |  |  |  | 
Cc1nc(-c2ccccc2)sc1C(=O)NS(=O)(=O)c1ccc(CN(CCSc2ccccc2)Cc2ccc3c(c2)OCO3)cc1 [SZ31TA3] | 29.6% | 51.3% | 9.4 µM | 69.9% | 100% |  |  |  |  | 
COc1cc2c(cc1OC)C(c1ccccc1)N(CCS(=O)(=O)NC(=O)c1ccc(CN3C(=O)C(c4ccc(F)cc4F)=C(c4ccc(F)cc4F)C3=O)cc1)CC2 (stereo not shown) [SZ27TA42] |  |  |  |  |  | 14.1% | 5.2% | 18.3% | 52.3% | 
O=C(NS(=O)(=O)c1ccc(-c2ccc(C(F)(F)F)cc2)cc1)c1cccc(NCCc2ccccc2)c1 [SZ16TA44] | 26.8% | 55.5% | 31.5 µM | 49.9% |  |  |  |  |  | 
COc1cc2c(cc1OC)C(c1ccccc1)N(Cc1ccc(S(=O)(=O)NC(=O)CCCN3C(=O)C(c4ccc(F)cc4F)=C(c4ccc(F)cc4F)C3=O)cc1)CC2 (stereo not shown) [SZ8TA20] | 9.1% | < 2% |  | 23.5% |  |  |  |  |  | 
O=C(NS(=O)(=O)c1ccc(CN2CCN(c3ccccc3)CC2)cc1)c1ccc2c(ccn2Cc2ccc(C(F)(F)F)cc2C(F)(F)F)c1 [SZ1TA30] |  |  |  |  |  | <2.0% | <2.0% | 11.8% | 2.6% | 
Cn1cc(C(=O)C2CCCCC2)c2cc(C(=O)NS(=O)(=O)c3ccc(-c4ccc(C(C)(C)C)cc4)cc3)ccc21 [SZ11TA40] | 30.7% | 58.7% | 21.9 µM | 74% | > 99% |  |  |  |  | 
COc1cc2c(cc1OC)C(c1ccccc1)N(Cc1ccc(S(=O)(=O)NC(=O)c3ccc(-c4ccc(F)cc4)cc3)cc1)CC2 (stereo not shown) [SZ8TA14] | 14.4% | 13.9% |  | 35.2% | 58.3% |  |  |  |  | 
Cn1cc(C(=O)c2cccs2)c2cc(C(=O)NS(=O)(=O)c3ccc(CN(CCSc4ccccc4)Cc4ccc5c(c4)OCO5)cc3)ccc21 [SZ31TA45] |  |  |  |  |  | 7.2% | <2.0% | 53.8% | 40.2% | 
COc1cccc(CN(CCSc2ccccc2)Cc2ccc(S(=O)(=O)NC(=O)c3ccc(-c4ccccn4)cc3)cc2)c1 [SZ17TA25] |  |  |  |  |  | 38.6% | 54.5% | 64.9% | 93.6% | 
Cn1cc(C(=O)C2CCCCC2)c2cc(C(=O)NS(=O)(=O)c3ccc(COc4ccc5c(=O)cc(-c6ccccc6)oc5c4)cc3)ccc21 [SZ14TA40] |  |  |  |  |  | 27.8% | 47.9% | 68.5% | 93.1% | 
Cc1nc(-c2ccccc2)sc1C(=O)NS(=O)(=O)c1ccc(CN(CCSc2ccccc2)Cc2c(F)cccc2Cl)cc1 [SZ15TA3] |  | 43% | 5.8 µM |  |  |  |  |  |  | 
O=C(NS(=O)(=O)c1ccc(CN(CCSc2ccccc2)Cc2ccc3c(c2)OCO3)cc1)c1ccc(OC(F)(F)F)cc1 [SZ31TA8] | 9.5% |  | 5.9 µM | 61.2% | > 99% |  |  |  |  | 
NS(=O)(=O)c1ccc(CN(CCSc2ccccc2)Cc2ccc(S(=O)(=O)NC(=O)CC3Sc4ccccc4NC3=O)cc2)cc1 (stereo not shown) [SZ10TA34] |  |  |  |  |  | 17.4% | 27.0% | 19.4% | 64.1% | 
CC1(C)CCN(c2ccc(C(=O)NS(=O)(=O)c3ccc(CN(CCSc4ccccc4)Cc4ccc(S(N)(=O)=O)cc4)cc3)cc2)CC1 [SZ10TA2] |  | 52.1% | 15.8 µM | 41.7% | 94.7% |  |  |  |  | 44 µM
Cn1cc(C(=O)c2cccs2)c2cc(C(=O)NS(=O)(=O)CCN(CCSc3ccccc3)Cc3ccc4c(c3)OCO4)ccc21 [SZ28TA45] |  |  |  |  |  | 25.7% | 34.6% | 46.8% | 54.0% | 
[N-]=[N+]=NS(=O)(=O)c1ccc(CN(CCSc2ccccc2)Cc2ccc(S(=O)(=O)NC(=O)c3ccc(-c4ccc(F)cc4)cc3)cc2)cc1 [SZ9TA14] |  |  |  |  |  | 8.4% | 7.0% | 30% | 42.5% | 
